target: T1, Rat liver microsomal squalene synthetase (Rattus norvegicus, UniProt Q02769); test: In vitro inhibition of squalene synthetase; assay type: biochemical; conditions: 10 µM test compound; rat liver microsomes, labelled farnesyl pyrophosphate, 10 minutes at 37 °C; compared to controls with no test compound
T1 construct: Rat liver microsome, the source of enzyme; from tissue; host or cells: rat liver microsomes
T1 sequence (Q02769 1-416): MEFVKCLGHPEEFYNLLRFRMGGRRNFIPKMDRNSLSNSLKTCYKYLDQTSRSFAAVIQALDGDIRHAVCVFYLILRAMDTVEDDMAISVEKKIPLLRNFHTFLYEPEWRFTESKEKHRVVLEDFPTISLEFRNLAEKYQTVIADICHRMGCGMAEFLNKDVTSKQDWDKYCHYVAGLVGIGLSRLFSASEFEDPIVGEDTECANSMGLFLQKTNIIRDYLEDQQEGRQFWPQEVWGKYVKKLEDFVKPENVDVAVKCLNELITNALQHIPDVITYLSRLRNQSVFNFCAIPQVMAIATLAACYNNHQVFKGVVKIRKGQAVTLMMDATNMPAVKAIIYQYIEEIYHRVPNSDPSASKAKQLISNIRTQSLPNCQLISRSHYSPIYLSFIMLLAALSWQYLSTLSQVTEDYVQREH
Description: In vitro inhibition of squalene synthetase may be measured by the following procedure. Rat liver microsomal squalene synthetase activity was measured using farnesyl pyrophosphate as a substrate and quantitating squalene synthesis using labelled farnesyl pyrophosphate and counting the squalene formed. Rat liver microsome, the source of enzyme, was prepared according to the method of Gillies, P. J., et al., Exp. Molc. Pathol. 44: 329-339 (1986), a modification of the procedure of Erickson, S. K., and Cooper, A. D., Metabolism, 29: 991-996 (1980). […] Oxygen was excluded from the closed incubation tube by degassing with nitrogen. The reaction was terminated by the addition of ethanolic KOH and after degassing with N2, the microsomal membranes were solubilized by heating at 60 °C for 30 minutes. The squalene was extracted into hexane, and the squalene was separated from all other radioactive molecules by passage over an activated alumina column. […] The per cent inhibition at a dose of 10 µM (or 1 µM) compared to controls with no test compound was determined. […]

| inhibition at 10 µM [%] | % Inhibition at 10 µM [%] | Molecule |
| --- | --- | --- |
| 85 | – | CCCN(Cc1ccc(Oc2ccccc2)s1)C(=O)C1C(C(=O)O)C(C(=O)O)C1C(=O)N(CCC)Cc1ccc(Oc2ccccc2)s1 (stereo not drawn) [Example 83B, (1α,2β,3β,4α)-1,2-Di[N-propyl-N-(5-phenoxythien-2-ylmethyl)aminocarbonyl]cyclobutane-3,4-dicarboxylic acid] |
| 20 | – | CN(C(=O)[C@H]1[C@@H](C(=O)O)[C@H](C(=O)O)[C@@H]1C(=O)N(C)c1ccc(-c2ccccc2)cc1)c1ccc(-c2ccccc2)cc1 [Example 22, (1α,2β,3β,4α)-1,2-Di[N-methyl-N-biphenylamino-carbonyl]cyclobutane-2,4-dicarboxylic acid] |
| 82 | – | COCCN(Cc1ccc(Oc2ccccc2)cc1)C(=O)C1C(C(=O)O)C(C(=O)O)C1C(=O)N(CCOC)Cc1ccc(Oc2ccccc2)cc1 (stereo not drawn) [Example 40B, (1α,2β,3β,4α)-1,2-Di[N-(2-methoxyethyl)-N-(4-phenoxybenzyl)aminocarbonyl]cyclobutane-3,4-dicarboxylic acid] |
| 87 | – | CCCN(Cc1ccc(Nc2ccccc2)cc1)C(=O)[C@H]1[C@@H](C(=O)O)[C@H](C(=O)O)[C@@H]1C(=O)N(CCC)Cc1ccc(Nc2ccccc2)cc1 [Example 67C, (1α,2β,3β,4α)-1,2-Di[N-propyl-N-(4-phenylaminobenzyl)aminocarbonyl]cyclobutane-3,4-dicarboxylic acid] |

The next lines start with the molecule.

| Molecule | inhibition at 10 µM [%] | % Inhibition at 10 µM [%] |
| --- | --- | --- |
| O=C(O)C1C(C(=O)O)C(C(=O)N(Cc2ccccc2)Cc2ccccc2)C1C(=O)N(Cc1ccccc1)Cc1ccccc1 (stereo not drawn) [Example 121, (1α,2β,3β,4α)-1,2-Di[N,N-dibenzylaminocarbonyl]cyclobutane-3,4-dicarboxylic acid] | 44 | – |
| CCCN(Cc1ccc(Oc2ccccc2)cc1)C(=O)[C@@H]1[C@H](C(N)=O)[C@@H](C(=O)O)[C@H]1C(=O)N(CCC)Cc1ccc(Oc2ccccc2)cc1 (relative stereo) [Example 99B, (1α,2β,3β,4α)-3-(Amino)carbonyl-1,2-di[N-propyl-N-(4-phenoxybenzyl)aminocarbonyl]cyclobutane-4-carboxylic Acid] | 80 | – |
| CCCN(C(=O)C1C(C(=O)O)C(C(=O)O)C1C(=O)N(CCC)c1ccc(Oc2ccccc2)cc1)c1ccc(Oc2ccccc2)cc1 (stereo not drawn) [Example 39C, (1α,2β,3β,4α)-1,2-Di[N-propyl-N-(4-phenoxyphenyl)aminocarbonyl]cyclobutane-3,4-dicarboxylic acid] | 59 | – |
| (1α,2β,3β,4α)-1,2-Di[N-propyl-N-(4-phenoxybenzyl)aminocarbonyl]-3,4-di[(hydroxyimino)methyl]-cyclobutane [Example 79B] | – | 83 |
| O=C(O)[C@H]1[C@H](C(=O)O)[C@H](C(=O)N(CCc2ccccc2)Cc2ccc(Oc3ccccc3)cc2)[C@H]1C(=O)N(CCc1ccccc1)Cc1ccc(Oc2ccccc2)cc1 [Example 56, (1α,2β,3β,4α)-1,2-Di[N-(4-phenoxybenzyl)-N-phenethylaminocarbonyl] cyclobutane-3,4-dicarboxylic acid] | 86 | – |
| O=C(O)C1C(C(=O)O)C(C(=O)N(Cc2ccc(Oc3ccccc3)cc2)CC2CC2)C1C(=O)N(Cc1ccc(Oc2ccccc2)cc1)CC1CC1 (stereo not drawn) [Example 47B, (1α,2β,3β,4α)-1,2-Di[N-(cyclopropylmethyl)-N-(4-phenoxybenzyl)aminocarbonyl]cyclobutane-3,4-dicarboxylic acid] | 87 | – |
| COc1cccc(CCN(Cc2ccc(Oc3ccccc3)cc2)C(=O)C2C(C(=O)O)C(C(=O)O)C2C(=O)N(CCc2cccc(OC)c2)Cc2ccc(Oc3ccccc3)cc2)c1 (stereo not drawn) [Example 54B, (1α,2β,3β,4α)-1,2-Di[N-(4-phenoxybenzyl)-N-(3-methoxyphenethyl)aminocarbonyl]cyclobutane-3,4-dicarboxylic acid] | 74 | – |
| CCCN(CCc1ccc(Oc2ccccc2)cc1)C(=O)[C@H]1[C@@H](C(=O)O)[C@H](C(=O)O)[C@@H]1C(=O)N(CCC)CCc1ccc(Oc2ccccc2)cc1 [Example 38H, (1α,2β,3β,4α)-1,2-Di[N-propyl-N-(2-(4-phenoxyphenyl)ethyl)aminocarbonyl]cyclobutane-3,4-dicarboxylic acid] | 51 | – |
| O=C(O)[C@H]1[C@H](C(=O)O)[C@H](C(=O)N(Cc2ccc(Oc3ccccc3)cc2)Cc2ccc(Oc3ccccc3)cc2)[C@H]1C(=O)N(Cc1ccc(Oc2ccccc2)cc1)Cc1ccc(Oc2ccccc2)cc1 [Example 19, (1α,2β,3β,4α)-1,2-Di[N,N-di(4-phenoxybenzyl)aminocarbonyl]cyclobutane-3,4-dicarboxylic acid] | 86 | – |
| CCCN(Cc1ccc(Oc2ccco2)cc1)C(=O)C1C(C(=O)O)C(C(=O)O)C1C(=O)N(CCC)Cc1ccc(Oc2ccco2)cc1 (centres unmarked) [Example 84G] | 89 | – |
| O=C(O)[C@H]1[C@H](C(=O)O)[C@H](C(=O)OCc2ccc(Oc3ccccc3)cc2)[C@H]1C(=O)OCc1ccc(Oc2ccccc2)cc1 [Example 65B, (1α,2β,3β,4α)-1,2-Di-(4-phenoxybenzyloxycarbonyl)-3,4-dicarboxylic acid] | 58 | – |

same assay, conditions: values marked * in Table 1: 1 µM test compound; rat liver microsomes, labelled farnesyl pyrophosphate, 10 minutes at 37 °C

| inhibition at 1 µM [%] | % Inhibition at 1 µM | Molecule |
| --- | --- | --- |
| 49 | – | CCCN(Cc1ccc(Oc2ccccc2)cc1)C(=O)C1C(C(=O)O)C(C(=O)NCCC(=O)O)C1C(=O)N(CCC)Cc1ccc(Oc2ccccc2)cc1 (stereo not drawn) [Example 111, (1α,2β,3β,4α)-1,2-Di[N-propyl-N-(4-phenoxybenzyl)aminocarbonyl]cyclobutane-3,4-dicarboxylic acid mono-β-Alanine amide] |
| 56 | – | O=C(O)C1C(C(=O)O)C(C(=O)N(Cc2ccc(Oc3ccccc3)cc2)Cc2ccco2)C1C(=O)N(Cc1ccc(Oc2ccccc2)cc1)Cc1ccco1 (stereo not drawn) [Example 44, (1α,2β,3β,4α)-1,2-Di[N-(furan-2-ylmethyl)-N-(4-phenoxybenzyl)aminocarbonyl)cyclobutane-3,4-dicarboxylic acid] |
| – | 31* % | (1α,2β,3β,4α)-1,2-Di[N-propyl-N-(4-phenoxybenzyl)aminocarbonyl]cyclobutane-3,4-dicarboxylic acid mono-l-Norleucine amide [Example 113] |
| 72 | – | CSCCN(Cc1ccc(Oc2ccccc2)cc1)C(=O)C1C(C(=O)O)C(C(=O)O)C1C(=O)N(CCSC)Cc1ccc(Oc2ccccc2)cc1 (stereo not drawn) [Example 41B, (1α,2β,3β,4α)-1,2-Di[N-(2-methylthioethyl)-N-(4-phenoxybenzyl)aminocarbonyl]cyclobutane-3,4-dicarboxylic acid] |
| 72 | – | C=CCN(Cc1ccc(Oc2ccccc2)cc1)C(=O)[C@H]1[C@@H](C(=O)O)[C@H](C(=O)O)[C@@H]1C(=O)N(CC=C)Cc1ccc(Oc2ccccc2)cc1 [Example 29, (1α,2β,3β,4α)-1,2-Di[N-allyl-N-(4-phenoxybenzyl)aminocarbonyl]cyclobutane-3,4-dicarboxylic acid] |
| 65 | – | CCOC(=O)CCN(Cc1ccc(Oc2ccccc2)cc1)C(=O)[C@H]1[C@@H](C(=O)O)[C@H](C(=O)O)[C@@H]1C(=O)N(CCC(=O)OCC)Cc1ccc(Oc2ccccc2)cc1 [Example 60, (1α,2β,3β,4α)-1,2-Di[N-(4-phenoxybenzyl)-N-(ethoxycarbonylethyl)aminocarbonyl]cyclobutane-3,4-dicarboxylic acid] |

Second part, the molecule before the results:

| Molecule | inhibition at 1 µM [%] | % Inhibition at 1 µM |
| --- | --- | --- |
| CCCN(Cc1ccc(Sc2ccccc2)cc1)C(=O)C1C(C(=O)O)C(C(=O)O)C1C(=O)N(CCC)Cc1ccc(Sc2ccccc2)cc1 (stereo not drawn) [Example 68B, (1α,2β,3β,4α)-1,2-Di[N-propyl-N-(4-phenylthiobenzyl)aminocarbonyl]cyclobutane-3,4-dicarboxylic acid] | 84 | – |
| CCCN(Cc1ccc(Oc2nccs2)cc1)C(=O)C1C(C(=O)O)C(C(=O)O)C1C(=O)N(CCC)Cc1ccc(Oc2nccs2)cc1 (centres unmarked) [Example 85] | 56 | – |
| O=C(O)CC1C(CC(=O)O)C(C(=O)N(Cc2ccccc2)Cc2ccc(Oc3ccccc3)cc2)C1C(=O)N(Cc1ccccc1)Cc1ccc(Oc2ccccc2)cc1 (stereo not drawn) [Example 128F, (1α,2β,3β,4α)-1,2-Di{N-benzyl-N-[(4-phenoxy)benzyl]aminocarbonyl)cyclobutane-3,4-diacetic acid] | 80 | – |
| CCCN(Cc1ccc(Oc2ccccc2)cc1)C(=O)C1C(C(=O)O)C(C(O)C(=O)O)C1C(=O)N(CCC)Cc1ccc(Oc2ccccc2)cc1 (stereo not drawn) [Example 78B, (1α,2β,3β,4α)-1,2-Di[N-propyl-N-(4-phenoxybenzyl)aminocarbonyl]-4-(1-carboxy-1-hydroxymethyl)cyclobutane-3-carboxylic acid] | 82 | – |

same assay, conditions: values marked * in Table 1: 1 µM test compound; rat liver microsomes, labelled farnesyl pyrophosphate, 10 minutes at 37 °C; 1 µM

| % Inhibition at 1 µM | Molecule |
| --- | --- |
| 57* % | (1α,2β,3β,4α)-1,2-Di[N-propyl-N-(4-phenoxybenzyl)aminocarbonyl]cyclobutane-3-phenoxycarbonyl-4-carboxylic acid [Example 105B] |
